In US20230248722A1, “CLOFAZIMINE COMPOSITION AND METHOD FOR THE TREATMENT OR PROPHYLAXIS OF VIRAL INFECTIONS” (priority 2020, published 2023):

System: SARS-CoV-2
Assay type: cell-based
Details: in vitro; 2.5 μM (or ~1.2 μg clofazimine/ml)

CC(C)/N=c1\cc2n(-c3ccc(Cl)cc3)c3ccccc3nc-2cc1Nc1ccc(Cl)cc1 [clofazimine, N,5-bis(4-chlorophenyl)-3-propan-2-yliminophenazin-2-amine]
reduce or eliminate viral replication: 40%
